Reference: patent US8168651B2, “Protein kinase modulators” (Cylene Pharmaceuticals, Inc., priority 2008, dated 2012)
Read-outs that look alike come from different tables or passages of the source.

Columns and labels:
[1] = test system: HCT-116 human colorectal carcinoma cells; experiment: Cell-proliferation assay using Alamar Blue dye; assay type: cell-based; settings: Homo sapiens;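 further: cells exposed to compound for about 4 days, then Alamar Blue added and dye fluorescence read after about 4 h, compared with medium-only control wells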
recombinant human PIM1 = recombinant human PIM1 (Homo sapiens (Human), UniProt P11309); experiment: PIM-1 kinase activity in cell-free in vitro assay; assay type: biochemical; settings: for inhibition at 0.5 µM: read-out: PIM-1: % inh 500 nM
Sequence of recombinant human PIM1 (P11309 whole entry): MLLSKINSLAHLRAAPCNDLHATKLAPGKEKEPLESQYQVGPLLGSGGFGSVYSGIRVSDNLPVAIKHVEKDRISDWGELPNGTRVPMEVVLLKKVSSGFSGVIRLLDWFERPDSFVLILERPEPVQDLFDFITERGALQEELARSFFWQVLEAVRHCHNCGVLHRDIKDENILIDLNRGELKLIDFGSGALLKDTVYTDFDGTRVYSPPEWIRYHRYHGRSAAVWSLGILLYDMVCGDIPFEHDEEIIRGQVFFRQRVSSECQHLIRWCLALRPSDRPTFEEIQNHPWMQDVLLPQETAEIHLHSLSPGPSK

[2] = HCT-116, read-out: HCT-116 (uM), cell proliferation modulatory activity, HCT-116, first column
[3] = HCT-116, read-out: HCT-116 (uM), cell proliferation modulatory activity, HCT-116, second column
[4] = HCT-116, HCT-116, second column, read-out: HCT-116 (uM), cell proliferation modulatory activity
[5] = 500 nM compound, cell-free assay

| SMILES | IC50 [1, 2] | inhibition at 0.5 µM (recombinant human PIM1; 500 nM compound, cell-free) | IC50 (recombinant human PIM1; cell-free) | IC50 [1, 3] | other results |
| --- | --- | --- | --- | --- | --- |
| O=C(O)c1ccc2c(c1)nc(OCCCO)c1ccsc12 | 10 µM | -34.7% | – | – | – |
| O=C(O)c1ccc2c(c1)nc(NCCCO)c1ccsc12 | 10 µM | -0.688% | – | – | – |
| O=C(O)c1ccc2c(c1)nc(NCCN1CCOCC1)c1ccsc12 | 10 µM | -10% | – | – | – |
| O=C(O)c1ccc2c(c1)nc(N1CCc3ccccc31)c1ccsc12 | 10 µM | -9.95% | – | – | – |
| O=C(O)c1ccc2c(c1)nc(Nc1ccc(N3CCOCC3)cc1)c1ccsc12 | 10 µM | – | – | – | inhibition at 0.5 µM (recombinant human PIM1): 1.17% |
| COc1cccc(Nc2nc3cc(-c4nnn[nH]4)ccc3c3sccc23)c1 | 10 µM | 55.7% | 0.352 µM | – | – |
| Clc1ccc(Nc2nc3cc(-c4nnn[nH]4)ccc3c3sccc23)cc1 | 10 µM | 66.4% | 0.501 µM | – | – |
| CC(C)Oc1cccc(Nc2nc3cc(-c4nnn[nH]4)ccc3c3sccc23)c1 | – | 31.9% | – | > 10 µM | – |
| COc1cc(Nc2nc3cc(-c4nnn[nH]4)ccc3c3sccc23)cc(OC)c1 | – | 55.8% | 0.465 µM | 15 µM | – |
| CCOC(=O)c1cccc(Nc2nc3cc(-c4nnn[nH]4)ccc3c3sccc23)c1 | – | 34% | – | – | IC50 [1, 4]: > 10 µM |
| CC(C)c1cccc(Nc2nc3cc(-c4nnn[nH]4)ccc3c3sccc23)c1 | – | 35.9% | – | – | IC50 [1, 4]: > 10 µM |
| c1ccc2c(c1)ncn2-c1nc2cc(-c3nnn[nH]3)ccc2c2sccc12 | – | 71.6% | > 1.1 µM | – | IC50 [1, 4]: 15 µM |
| CCOc1cccc(Nc2nc3cc(-c4nnn[nH]4)ccc3c3sccc23)c1 | – | 57.7% | 0.384 µM | > 10 µM | – |
| CCc1cccc(Nc2nc3cc(-c4nnn[nH]4)ccc3c3sccc23)c1 | – | 61% | > 1.1 µM | > 10 µM | – |
| c1ccc(CNc2nc3cc(-c4nnn[nH]4)ccc3c3sccc23)cc1 | – | -21.2% | – | – | IC50 [1, 4]: > 10 µM |
| FC(F)(F)c1cc(Nc2nc3cc(-c4nnn[nH]4)ccc3c3sccc23)ccc1Cl | – | -46.4% | – | – | IC50 [1, 4]: > 10 µM |

| SMILES | IC50 [1, 2] | inhibition at 0.5 µM (recombinant human PIM1; 500 nM compound, cell-free) | IC50 (recombinant human PIM1; cell-free) | IC50 [1, 3] | other results |
| --- | --- | --- | --- | --- | --- |
| c1cc2c(Nc3ccc4c(c3)OCO4)nc3cc(-c4nnn[nH]4)ccc3c2s1 | – | 18% | – | – | IC50 [1, 4]: > 10 µM |
| c1cc2c(Nc3ccc4c(c3)OCCO4)nc3cc(-c4nnn[nH]4)ccc3c2s1 | – | 26.7% | – | > 10 µM | – |
| CN(C)CCCNc1nc2cc(-c3nnn[nH]3)ccc2c2sccc12 | – | 58.2% | 0.511 µM | – | IC50 [1, 4]: 15 µM |
| N#Cc1ccc2c(c1)nc(Nc1ccccc1)c1ccncc12 | – | 2.12% | – | – | IC50 [1, 4]: 6.9 µM |
| CN(C)CCNc1nc2cc(C#N)ccc2c2cnccc12 | – | -11.5% | – | – | IC50 [1, 4]: 1.6 µM |
| O=C(c1cccc(Nc2nc3cc(-c4nnn[nH]4)ccc3c3sccc23)c1)N1CCOCC1 | – | 21% | – | > 10 µM | – |
| CN(C)CCNC(=O)c1cccc(Nc2nc3cc(-c4nnn[nH]4)ccc3c3sccc23)c1 | – | 71.1% | 0.38 µM | > 10 µM | – |
| COC(=O)CNC(=O)c1cccc(Nc2nc3cc(-c4nnn[nH]4)ccc3c3sccc23)c1 | – | 48% | – | > 10 µM | – |
| O=C(NCc1cccnc1)c1cccc(Nc2nc3cc(-c4nnn[nH]4)ccc3c3sccc23)c1 | – | 29.6% | – | > 10 µM | – |
| CN(C)C(=O)c1cccc(Nc2nc3cc(-c4nnn[nH]4)ccc3c3sccc23)c1 | – | 49.1% | – | > 10 µM | – |
| CC(=O)N1CCN(C(=O)c2cccc(Nc3nc4cc(-c5nnn[nH]5)ccc4c4sccc34)c2)CC1 | – | 48.4% | – | > 10 µM | – |
| Fc1cc(Cl)cc(Nc2nc3cc(-c4nnn[nH]4)ccc3c3sccc23)c1 | – | 82% | 0.562 µM | > 10 µM | – |
| C#Cc1cccc(Nc2nc3cc(-c4nnn[nH]4)ccc3c3sccc23)c1 | – | 64.6% | 0.716 µM | > 10 µM | – |
| C#Cc1cccc(Nc2nc3cc(C(=O)O)ccc3c3cnc(NCCOC)nc23)c1 | – | – | – | – | IC50 ([1]; HCT-116, read-out: HCT-116 (uM), cell proliferation modulatory activity, HCT-116, second HCT-116 column (c8)): 8.05 µM; inhibition at 0.5 µM (recombinant human PIM1; [5]): 55.5%; IC50 (recombinant human PIM1; cell-free assay): > 1.1 µM |
| O=C(O)c1ccc2c(c1)nc(Nc1cc(-c3ccccc3)[nH]n1)c1ccncc12 | – | – | – | – | IC50 ([1]; HCT-116, second HCT-116 column (c8), read-out: HCT-116 (uM) cell proliferation modulatory activity): > 10 µM; inhibition at 0.5 µM (recombinant human PIM1; [5]): 56%; IC50 (recombinant human PIM1; cell-free assay): > 1.1 µM |

Now from value to compound, other results behind:

| IC50 [1, 2] | inhibition at 0.5 µM (recombinant human PIM1; 500 nM compound, cell-free) | IC50 (recombinant human PIM1; cell-free) | IC50 [1, 3] | SMILES | other results |
| --- | --- | --- | --- | --- | --- |
| 10 µM | -49.4% | – | – | O=C(O)c1ccc2c(c1)nc(NCCO)c1ccsc12 | – |
| 10 µM | -36.6% | – | – | O=C(O)c1ccc2c(c1)nc(NCc1ccccn1)c1ccsc12 | – |
| 10 µM | 71.3% | – | – | O=C(O)c1ccc2c(c1)nc(NCc1ccncc1)c1ccsc12 | – |
| 10 µM | 0.445% | – | – | COc1ccccc1Nc1nc2cc(C(=O)O)ccc2c2sccc12 | – |
| 10 µM | 6.5% | – | – | O=C(O)c1ccc2c(c1)nc(Nc1cccc(O)c1)c1ccsc12 | – |
| 10 µM | 3.88% | – | – | COc1ccc(Nc2nc3cc(C(=O)O)ccc3c3sccc23)c(OC)c1 | – |
| 10 µM | 19.9% | – | – | O=C(O)c1ccc2c(c1)nc(NCCc1ccccc1)c1ccsc12 | – |
| 10 µM | 66.7% | 0.32 µM | – | O=C(O)c1ccc2c(c1)nc(Nc1ccc(F)cc1)c1ccsc12 | – |
| 10 µM | -15.5% | – | – | Cc1ccccc1Nc1nc2cc(C(=O)O)ccc2c2sccc12 | – |
| 10 µM | 23.4% | – | – | COc1cccc(Nc2nc3cc(C(=O)O)ccc3c3sccc23)c1 | – |
| 10 µM | 67.2% | 0.362 µM | – | O=C(O)c1ccc2c(c1)nc(Nc1ccc(F)cc1F)c1ccsc12 | – |
| 10 µM | 37.4% | – | – | O=C(O)c1ccc2c(c1)nc(NC1CC1)c1ccsc12 | – |
| 10 µM | -2.65% | – | – | COc1ccc(Nc2nc3cc(C(=O)O)ccc3c3sccc23)cc1Cl | – |
| 10 µM | -3.12% | – | – | O=C(O)c1ccc2c(c1)nc(Nc1ccccc1O)c1ccsc12 | – |
| 10 µM | -3.22% | – | – | COc1ccc(OC)c(Nc2nc3cc(C(=O)O)ccc3c3sccc23)c1 | – |
| 10 µM | 67.4% | 0.702 µM | – | Fc1ccc(Nc2nc3cc(-c4nnn[nH]4)ccc3c3sccc23)cc1Cl | – |
| 10 µM | 25.6% | – | – | COc1ccc(Nc2nc3cc(-c4nnn[nH]4)ccc3c3sccc23)cc1Cl | – |
| – | 35% | – | > 10 µM | COc1cc(Nc2nc3cc(-c4nnn[nH]4)ccc3c3sccc23)ccc1F | – |
| – | 34.1% | – | – | COc1cc(Nc2nc3cc(-c4nnn[nH]4)ccc3c3sccc23)ccc1C | IC50 [1, 4]: > 10 µM |
| – | 52.8% | 0.42 µM | > 10 µM | O=C(O)c1ccc2c(c1)nc(Nc1cc(Cl)ccc1F)c1ccsc12 | – |
| – | 16.8% | – | > 10 µM | CCOc1cccc(Nc2nc3cc(C(=O)O)ccc3c3sccc23)c1 | – |

| IC50 [1, 2] | inhibition at 0.5 µM (recombinant human PIM1; 500 nM compound, cell-free) | IC50 (recombinant human PIM1; cell-free) | IC50 [1, 3] | SMILES | other results |
| --- | --- | --- | --- | --- | --- |
| – | -10.2% | – | > 10 µM | O=C(O)c1ccc2c(c1)nc(Nc1cccc(Oc3ccccc3)c1)c1ccsc12 | – |
| – | 21.7% | – | > 10 µM | NS(=O)(=O)c1cccc(Nc2nc3cc(C(=O)O)ccc3c3sccc23)c1 | – |
| – | 13.3% | – | > 10 µM | CCCNC(=O)c1cccc(Nc2nc3cc(C(=O)O)ccc3c3sccc23)c1 | – |
| – | 46.4% | – | > 10 µM | O=C(O)c1ccc2c(c1)nc(Nc1cccc(C(=O)N3CCOCC3)c1)c1ccsc12 | – |
| – | 24% | – | > 10 µM | O=C(O)CNC(=O)c1cccc(Nc2nc3cc(C(=O)O)ccc3c3sccc23)c1 | – |
| – | 74.7% | 0.436 µM | > 10 µM | CN(C)CCNC(=O)c1cccc(Nc2nc3cc(C(=O)O)ccc3c3sccc23)c1 | – |
| – | 37.5% | – | > 10 µM | O=C(O)c1ccc2c(c1)nc(Nc1cccc(C(=O)NC3CC3)c1)c1ccsc12 | – |
| – | 38% | – | > 10 µM | CNC(=O)Cc1cccc(Nc2nc3cc(C(=O)O)ccc3c3sccc23)c1 | – |
| – | 57.9% | 0.553 µM | > 10 µM | O=C(O)c1ccc2c(c1)nc(Nc1cccc(Br)c1)c1ccsc12 | – |
| – | 27.6% | – | > 10 µM | O=C(O)c1ccc2c(c1)nc(Nc1cccc(Cl)c1F)c1ccsc12 | – |
| – | 51.9% | 0.679 µM | > 10 µM | O=C(O)c1ccc2c(c1)nc(Nc1ccc3[nH]ccc3c1)c1ccsc12 | – |
| – | 59.1% | 0.53 µM | > 10 µM | Cc1cccc(Nc2nc3cc(C(=O)O)ccc3c3sccc23)c1 | – |
| – | 47.2% | – | > 10 µM | O=C(O)c1ccc2c(c1)nc(Nc1ccc3cc[nH]c3c1)c1ccsc12 | – |
| – | 51.6% | 0.814 µM | > 10 µM | CCc1cccc(Nc2nc3cc(C(=O)O)ccc3c3sccc23)c1 | – |
| – | 40.5% | – | > 10 µM | O=C(O)c1ccc2c(c1)nc(Nc1cccc(I)c1)c1ccsc12 | – |
| – | 72.9% | 0.855 µM | > 10 µM | O=C(O)c1ccc2c(c1)nc(Nc1cccc(F)c1F)c1ccsc12 | – |
| – | 82.6% | 0.336 µM | > 10 µM | O=C(O)c1ccc2c(c1)nc(Nc1cc(F)cc(C(F)(F)F)c1)c1ccsc12 | – |
| – | 51% | 0.521 µM | > 10 µM | O=C(O)c1cc(F)cc(Nc2nc3cc(C(=O)O)ccc3c3sccc23)c1 | – |
| – | 67.1% | 0.308 µM | > 10 µM | O=C(O)c1ccc2c(c1)nc(Nc1cc(F)ccc1F)c1ccsc12 | – |
| – | 75.4% | 0.568 µM | > 10 µM | O=C(O)c1ccc2c(c1)nc(Nc1cccc(S(=O)(=O)NC3CC3)c1)c1ccsc12 | – |
